Literature values in patent EP2007386B1, “CAMPTOTHECIN-ANALOG WITH A NOVEL, FLIPPED LACTONE-STABLE, E-RING AND METHODS FOR MAKING AND USING SAME” (BIONUMERIK PHARMACEUTICALS, INC., priority 2006, dated 2007).
“Also recorded” adds a separate entry of the source. Like-named read-outs stand apart in the source and are kept apart here.

Columns and labels:
[1] = tested on: advanced malignant melanoma; conditions: fifteen patients, 90-360 mg/m^2 repeated every 2 weeks
[2] = for Non-Hematologic Toxicity No. of Patients With: Cystitis / Non-Hematologic Toxicity No. of Patients With: Diarrhea: 5-day Course; for Number of Patients with Non-Hematologic Toxicity: Cystitis / Number of Patients with Non-Hematologic Toxicity: Diarrhea: Single-Dose Method
[3] = not given; remark: listed apart in the source
angiogenesis = conditions: mice cornea model; dose levels of 210 mg/kg
[4] = et al
[5] = clinical studies in Japan alone
[6] = 5-Day Course (27 Patients Total), 4 wks
[7] = 5-Day Course (27 Patients Total), 8 wks
[8] = 5-Day Course (27 Patients Total), 12 wks
[9] = Single-Dose Method (34 Patients Total), 3 wks
[10] = Single-Dose Method (34 Patients Total), 6 wks
[11] = Single-Dose Method (34 Patients Total), 9 wks
[12] = Single-Dose Method (34 Patients Total), 12 wks
[13] = 15 mg/m^2x5, 9 patients treated
[14] = 17 mg/m^2x5, 5 patients treated
[15] = 20 mg/m^2x5, 10 patients treated
[16] = Rothenberg, 90mg QWx 4 Q42 days, 32 pts, 180mg/m^2/wk (50-180)

SMILES: CC[C@@]1(O)C(=O)OCc2c1cc1n(c2=O)Cc2cc3ccccc3nc2-1 [CPT sodium]
- Objective Results: Stable (patients) (gastrointestinal cancer; [6]): 12
- Objective Results: Worse (patients) (gastrointestinal cancer; [6]): 14
- Objective Results: Improved (patients) (gastrointestinal cancer; 5-Day Course (27 Patients Total), 4 wks after start of therapy): 1
- Objective Results: Stable (patients) (gastrointestinal cancer; [7]): 7
- Objective Results: Worse (patients) (gastrointestinal cancer; [7]): 20
- Objective Results: Stable (patients) (gastrointestinal cancer; [8]): 6
- Objective Results: Worse (patients) (gastrointestinal cancer; [8]): 21
- Objective Results: Stable (patients) (gastrointestinal cancer; [9]): 17
- Objective Results: Worse (patients) (gastrointestinal cancer; [9]): 13
- Objective Results: Improved (patients) (gastrointestinal cancer; Single-Dose Method (34 Patients Total), 3 wks after start of therapy): 4
- Objective Results: Improved (patients) (gastrointestinal cancer; [10]): 2
- Objective Results: Stable (patients) (gastrointestinal cancer; [10]): 11
- Objective Results: Worse (patients) (gastrointestinal cancer; [10]): 21
- Objective Results: Improved (patients) (gastrointestinal cancer; [11]): 2
- Objective Results: Stable (patients) (gastrointestinal cancer; [11]): 8
- Objective Results: Worse (patients) (gastrointestinal cancer; [11]): 24
- Objective Results: Stable (patients) (gastrointestinal cancer; [12]): 6
- Objective Results: Worse (patients) (gastrointestinal cancer; [12]): 28
- patients with evidence of partial objective improvement (gastrointestinal cancer; after 2 months (8 or 9 weeks), of 61 patients): two
- patients who showed improvement (gastrointestinal cancer; at 3 months, of 61 patients): none
- patients with less pronounced transient tumor regression [1]: three
- patients with myelosuppression [1]: 11
- patients with a 50% or greater decrease in tumor diameter ([1]; rapid IV injection): None
- patients with dose limiting bladder toxicity (doses of 20 to 30 mg/m^2, fifteen patients, intravenous push): three
- additional patients with bladder toxicity (doses of 30 and 44 mg/m^2): two
- clinical benefit (eight patients with measurable disease, 5-day courses at dose levels associated with toxicity): No clinical benefit
- Cystitis, 5-Day Course (% of 27 Patients) ([2]; 5-Day Course, 27 patients, P<0.05): 48 (P<0.05) %
- Non-Hematologic Toxicity No. of Patients With: Cystitis ([2]; 11 mg/m^2x5, 2 patients treated): 1
- Non-Hematologic Toxicity No. of Patients With: Cystitis [2, 13]: 4
- Non-Hematologic Toxicity No. of Patients With: Diarrhea [2, 13]: 1
- Non-Hematologic Toxicity No. of Patients With: Cystitis [2, 14]: 2
- Non-Hematologic Toxicity No. of Patients With: Diarrhea [2, 14]: 4
- Non-Hematologic Toxicity No. of Patients With: Cystitis [2, 15]: 6
- Non-Hematologic Toxicity No. of Patients With: Diarrhea [2, 15]: 4
- Non-Hematologic Toxicity No. of Patients With: Diarrhea ([2]; 22 mg/m^2x5, 1 patient treated): 1
- Cystitis, Single Dose (% of 34 Patients) ([2]; Single Dose, 34 patients): 24%
- Number of Patients with Non-Hematologic Toxicity: Cystitis ([2]; 100 mg/m^2, 6 patients treated): 2
- Number of Patients with Non-Hematologic Toxicity: Cystitis ([2]; 110 mg/m^2, 2 patients treated): 1
- Number of Patients with Non-Hematologic Toxicity: Diarrhea ([2]; 110 mg/m^2, 2 patients treated): 1
- Number of Patients with Non-Hematologic Toxicity: Cystitis ([2]; 120 mg/m^2, 7 patients treated): 2
- Number of Patients with Non-Hematologic Toxicity: Diarrhea ([2]; 120 mg/m^2, 7 patients treated): 4
- Number of Patients with Non-Hematologic Toxicity: Cystitis ([2]; 180 mg/m^2, 9 patients treated): 3
- Number of Patients with Non-Hematologic Toxicity: Diarrhea ([2]; 180 mg/m^2, 9 patients treated): 2

SMILES: CC[C@@]1(O)C(=O)OCc2c1cc1n(c2=O)Cc2cc3ccccc3nc2-1 [CPT, (S)-4-Ethyl-4-hydroxy-1 H-pyrano[3',4':6,7]indolizino[1,2-b]quinoline-3,14(4H,12H)-dione]
- mean urine recovery of CPT ([3]; excluding the five patients with impaired excretion): 22.8%
- mean urine recovery of CPT ([3]; over the first 48 hours, IV camptothecin sodium 0.5 to 10.0 mg/kg): 17.4%

SMILES: CCc1c2c(nc3ccc(OC(=O)N4CCC(N5CCCCC5)CC4)cc13)-c1cc3c(c(=O)n1C2)COC(=O)[C@]3(O)CC [CPT-11, 7-ethyl-10-[4-(1-piperidino)-1-piperidino]carbonyloxycamptothecin]
- effect on neovascularization (angiogenesis): significant reduction of neovascularization
- Tumor Type (responses) ([4]; Clavel, 90 min. QDx 3 Q21 Days, 37 pts, 115mg/m^2/d (33-115)): Breast (1 PR); also recorded: Mesothelioma
- Toxicity ([4]; Clavel, 90 min. QDx 3 Q21 Days, 37 pts, 115mg/m^2/d (33-115), * = Dose Limiting Toxicity): Neutropenia*; also recorded: diarrhea,; also recorded: vomiting,
- Tumor Type (responses) ([4]; Culine, 90 min. Q21 days, 59 pts, 150mg/m^2/wk (50-150)): Esophagus; also recorded: (1 PR) cervix; also recorded: (1 PR) renal; also recorded: (1 PR) Ovarian
- Toxicity ([4]; Culine, 90 min. Q21 days, 59 pts, 150mg/m^2/wk (50-150), * = Dose Limiting Toxicity): Fatigue; also recorded: Stomatitis; also recorded: Neutropenia*; also recorded: diarrhea*; also recorded: vomiting,; also recorded: Alopecia
- Tumor Type (responses) ([4]; Negoro, 30 min Infusion Weekly, 17 pts, 100mg/m^2 (50-150)): NS CLC (2 PRs)
- Toxicity ([4]; Negoro, 30 min Infusion Weekly, 17 pts, 100mg/m^2 (50-150), * = Dose Limiting Toxicity): neutropenia* and diarrhea* and N/V and alopecia, and Liver
- Tumor Type (responses) ([4]; Ohe, 120 hr CI Q3wks, 36 pts, 40mg/m^2/d (5-40)): None
- Toxicity ([4]; Ohe, 120 hr CI Q3wks, 36 pts, 40mg/m^2/d (5-40), * = Dose Limiting Toxicity): diarrhea*; also recorded: thrombocytopenia; also recorded: Anemia
- Toxicity [4, 16]: neutropenia,; also recorded: vomiting,; also recorded: Alopecia
- Tumor Type (responses) [4, 16]: Colon Ca
- Tumor Type (responses) ([4]; Rowinsky, 90 min Infusion Q21 day, 32 pts, 240mg/m^2 (100-345)): Colon Cancer (1 PR); also recorded: Cervix Ca
- Toxicity ([4]; Rowinsky, 90 min Infusion Q21 day, 32 pts, 240mg/m^2 (100-345), * = Dose Limiting Toxicity): Neutropenia*; also recorded: vomiting,; also recorded: diarrhea; also recorded: pain, flushing
- patient deaths directly attributable to drug toxicity [5]: approximately 100
